The source of these data is publication doi:10.1101/2025.06.17.660082v1 (bioRxiv, 2025).

One data set deals with white hMADS cells. Description: Lipolysis assay. The note with it: for FFA release after pretreatment with adenylyl cyclase inhibitor SQ22536: white hMADS. Format: cell-based, human.
In the next data set the target is T1, GIPR (Homo sapiens, UniProt P48546).
T1 sequence (P48546 22-466): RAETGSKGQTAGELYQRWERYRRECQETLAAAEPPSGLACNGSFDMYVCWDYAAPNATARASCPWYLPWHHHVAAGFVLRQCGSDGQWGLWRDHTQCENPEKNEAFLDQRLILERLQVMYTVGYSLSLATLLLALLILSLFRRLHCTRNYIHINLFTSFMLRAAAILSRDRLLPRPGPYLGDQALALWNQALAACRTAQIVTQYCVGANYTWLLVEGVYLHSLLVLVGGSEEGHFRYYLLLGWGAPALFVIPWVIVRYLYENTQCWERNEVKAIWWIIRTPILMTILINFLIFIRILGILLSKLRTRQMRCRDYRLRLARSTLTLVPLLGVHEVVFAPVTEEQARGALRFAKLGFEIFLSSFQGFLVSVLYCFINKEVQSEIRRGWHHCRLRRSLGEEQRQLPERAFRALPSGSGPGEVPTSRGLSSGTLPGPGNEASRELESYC
The data set is described as follows: Schild analysis of FFA release in hMADS with GIPR antagonist. Format: cell-based.

For another data set, the system named is hMADS cells. The data set is described as follows: mRNA expression by RT-qPCR in hMADS. The data set is classed as cell-based, human. The conditions noted are these: in the presence of 10 nM insulin, 24 h. In general terms: Quantitative PCR measures a nucleic acid by following its amplification.
Data set [1] deals with human insulin receptor/ CD220 (28-944) protein (Homo sapiens, UniProt P06213). The data set is described as follows: Surface plasmon resonance, immobilised biotinylated peptide, INSR injected. Format: binding. The conditions noted are these: biotinylated peptide on Sensor Chip SA. Background: SPR reads the build-up and loss of mass on a sensor chip optically.
The conditions of data set [2]: healthy individuals, degradation by dipeptidyl peptidase 4; cited from earlier work.

human insulin receptor/ CD220 (28-944) protein, sequence (P06213 28-944 isoform P06213-2): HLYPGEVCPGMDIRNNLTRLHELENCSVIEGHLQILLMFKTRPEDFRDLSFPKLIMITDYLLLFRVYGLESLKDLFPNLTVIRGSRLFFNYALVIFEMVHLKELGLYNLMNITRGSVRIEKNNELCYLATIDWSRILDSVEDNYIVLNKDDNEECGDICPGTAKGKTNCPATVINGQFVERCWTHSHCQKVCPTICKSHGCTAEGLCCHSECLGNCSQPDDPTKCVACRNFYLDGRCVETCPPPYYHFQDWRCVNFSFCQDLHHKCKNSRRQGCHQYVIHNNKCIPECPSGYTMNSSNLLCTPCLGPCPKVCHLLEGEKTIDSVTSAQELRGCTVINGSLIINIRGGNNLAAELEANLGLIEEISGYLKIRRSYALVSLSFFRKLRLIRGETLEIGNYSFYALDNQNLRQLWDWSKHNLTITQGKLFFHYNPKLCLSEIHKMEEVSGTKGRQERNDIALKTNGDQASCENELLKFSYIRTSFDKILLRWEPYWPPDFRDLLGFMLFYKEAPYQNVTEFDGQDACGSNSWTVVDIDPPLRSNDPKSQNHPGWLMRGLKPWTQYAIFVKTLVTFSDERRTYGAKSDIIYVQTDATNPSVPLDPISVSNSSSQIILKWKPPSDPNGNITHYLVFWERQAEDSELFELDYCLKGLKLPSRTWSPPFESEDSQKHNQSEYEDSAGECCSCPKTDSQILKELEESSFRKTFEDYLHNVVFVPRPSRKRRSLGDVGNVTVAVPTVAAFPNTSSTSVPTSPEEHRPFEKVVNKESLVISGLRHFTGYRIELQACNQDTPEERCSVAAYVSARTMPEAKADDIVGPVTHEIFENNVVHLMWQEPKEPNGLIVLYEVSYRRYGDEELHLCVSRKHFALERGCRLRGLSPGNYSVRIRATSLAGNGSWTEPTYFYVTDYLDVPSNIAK

On to `CC(C)NCC(O)c1ccc(O)c(O)c1` (centres unmarked) [isoprenaline], for which the “FFA release after pretreatment with adenylyl cyclase inhibitor SQ22536” value in the data set with white hMADS cells is “inhibited”.
For the molecule `CCCCCCCCCCCCCCCC(=O)N[C@@H](CCC(=O)NCCCC[C@H](NC(=O)[C@H](Cc1ccc(O)cc1)NC(=O)[C@H](CC(=O)O)NC(=O)[C@H](CO)NC(=O)[C@@H](NC(=O)[C@H](Cc1ccccc1)NC(=O)[C@@H](NC(C)=O)[C@@H](C)O)[C@@H](C)CC)C(=O)N[C@H](C(=O)N[C@@H](C)C(=O)N[C@@H](CC(C)C)C(=O)N[C@@H](CC(=O)O)C(=O)N[C@@H](CCCCN)C(=O)N[C@H](C(=O)N[C@@H](CCCNC(=N)N)C(=O)N[C@@H](CCC(N)=O)C(=O)N[C@@H](CCC(N)=O)C(=O)N[C@@H](CCC(=O)O)C(=O)N[C@@H](Cc1ccccc1)C(=O)N[C@H](C(=O)N[C@@H](CC(N)=O)C(=O)N[C@@H](Cc1c[nH]c2ccccc12)C(=O)N[C@@H](CC(C)C)C(=O)N[C@@H](CC(C)C)C(=O)N[C@@H](C)C(=O)N[C@@H](CCC(N)=O)C(=O)N[C@@H](CCCCN)C(=O)NCC(N)=O)C(C)C)[C@@H](C)CC)[C@@H](C)CC)C(=O)O` [GIPR antagonist], on GIPR, the “effect on lipolysis induced by 1 µM isoprenaline” value was “remains unchanged”.
As to `COc1cc([C@@H]2c3cc4c(cc3[C@H](O)[C@H]3COC(=O)[C@@H]23)OCO4)cc(OC)c1OC` [PPP, Picropodophyllin], in the data set on hMADS cells, the “expression of FASN” value is “significantly lower”.
For Ac-PKMVPQFNTELKIFPEVNIK-NH2 [SP34], the “binding of insulin receptor to immobilised peptide” value in data set [1] was “does not exhibit binding”.
For the molecule `CC[C@H](C)[C@H](NC(=O)[C@H](CO)NC(=O)[C@H](Cc1ccc(O)cc1)NC(=O)[C@H](CC(=O)O)NC(=O)[C@H](CO)NC(=O)[C@@H](NC(=O)[C@H](Cc1ccccc1)NC(=O)[C@@H](NC(=O)CNC(=O)[C@H](CCC(=O)O)NC(=O)[C@H](C)NC(=O)[C@@H](N)Cc1ccc(O)cc1)[C@@H](C)O)[C@@H](C)CC)C(=O)N[C@@H](C)C(=O)N[C@@H](CCSC)C(=O)N[C@@H](CC(=O)O)C(=O)N[C@@H](CCCCN)C(=O)N[C@H](C(=O)N[C@@H](Cc1c[nH]cn1)C(=O)N[C@@H](CCC(N)=O)C(=O)N[C@@H](CCC(N)=O)C(=O)N[C@@H](CC(=O)O)C(=O)N[C@@H](Cc1ccccc1)C(=O)N[C@H](C(=O)N[C@@H](CC(N)=O)C(=O)N[C@@H](Cc1c[nH]c2ccccc12)C(=O)N[C@@H](CC(C)C)C(=O)N[C@@H](CC(C)C)C(=O)N[C@@H](C)C(=O)N[C@@H](CCC(N)=O)C(=O)N[C@@H](CCCCN)C(=O)NCC(=O)N[C@@H](CCCCN)C(=O)N[C@@H](CCCCN)C(=O)N[C@@H](CC(N)=O)C(=O)N[C@@H](CC(=O)O)C(=O)N[C@@H](Cc1c[nH]c2ccccc12)C(=O)N[C@@H](CCCCN)C(=O)N[C@@H](Cc1c[nH]cn1)C(=O)N[C@@H](CC(N)=O)C(=O)N[C@H](C(=O)N[C@H](C(=O)N[C@@H](CCC(N)=O)C(=O)O)[C@@H](C)O)[C@@H](C)CC)C(C)C)[C@@H](C)CC` [hGIP], in data set [2], the half-life entry is recorded as “approximately 7 minutes”. Moreover, in the data set on white hMADS cells (GIPR knockdown approximately 40%), the “FFA release in hMADS treated with GIPR siRNA vs siNC” value is on record as “significantly reduced”. For the same molecule, the EC50 in the data set with white hMADS cells (read-out: EC50, FFA release read-out, hMADS cells) is 1.1 nM.
Turning to brain natriuretic peptide [BNP], in the data set with white hMADS cells, the “FFA release after pretreatment with adenylyl cyclase inhibitor SQ22536” value is reported as “remains unaffected”.

In general, EC50 refers to the concentration at which the effect is half-maximal.
